The values that follow come from article PMC11009625, “Antibiotic class with potent in vivo activity targeting lipopolysaccharide synthesis in Gram-negative bacteria” (Proceedings of the National Academy of Sciences of the …, 2024).

Values after ≈ are worked out from the molar mass of the structure shown. Where two headings read alike, the source gives them in different places. Bounds are passed on as bounds.

Data set [1] has as its system E. coli ATCC 25922. Description: MIC (CLSI broth microdilution), wild-type E. coli. The format is cell-based. Particulars: Escherichia coli, ATCC25922. The protocol: (§1) Minimum inhibitory concentration (MIC) values were determined according to the Clinical Laboratory Standards Institute guidelines. Frequency of resistance was determined by plating ~5 × 10^8 bacterial cells on agar-solidified media plates containing test compound at concentrations corresponding to four times the measured solid-media MIC of the strains. Colonies were counted after 24 h, restreaked onto media containing the same concentration of compound, and the MIC remeasured against the assayed compound. Genomic DNA from isolated clones was sequenced by paired-end sequencing on an Illumina MiSeq device. Complete experimental details available in SI Appendix. […]
(§2) Minimum inhibitory concentration (MIC) determination. Broth microdilution and agar dilution
(§3) MIC assays were conducted according to CLSI guidelines (M07-2012). Appropriate inoculation
(§4) suspension density was assessed using a Sensititre Nephelometer with a Sensititre 0.5
McFarland Standard. […]
A general note: Dilution methods test growth across graded concentrations, often in twofold steps.

Data set [2] concerns E. coli ATCC 25922 ΔtolC efflux mutant. Put plainly: MIC, E. coli efflux mutant. The format is cell-based. The protocol:
as §1, §2, §3

In data set [3] the test system is K. pneumoniae ATCC 13883. Description: MIC, K. pneumoniae, with and without 50% human serum. The data set is classed as cell-based. The protocol:
as §1, §2, §3, §4
McFarland Standard. Serum MICs were conducted in 50% heat-inactivated pooled human

The nature of data set [4]: in vitro. The data set is classed as cell-based. Here is the method: Minimum inhibitory concentration (MIC) determination. Broth microdilution and agar dilution MIC assays were conducted according to CLSI guidelines (M07-2012). Appropriate inoculation suspension density was assessed using a Sensititre Nephelometer with a Sensititre 0.5 McFarland Standard. Serum MICs were conducted in 50% heat-inactivated pooled human serum (Sigma-Aldrich). Serum was heated to 56 °C for one hour and then filtered using a 0.2 µm […]
Strain construction. The efflux-defective P. mirabilis strain EN1490 was constructed using EZ-Tn5 <KAN-2> Transposome mutagenesis with TypeOne Restriction Inhibitor. Approximately 3000 independent clones were screened for increased susceptibility to chloramphenicol (8 mg/L), yielding 2 independent clones with insertions in the gene tolC. […]

For data set [5], the system named is HepG2 cells. Put plainly: HepG2 cytotoxicity (72 h). The format is cell-based. The protocol: (§5) Thermodynamic solubility was assessed by dissolving 2 to 3 mg of test compound to equilibrium in 100 mM KPO4-buffer, pH 7.4. The metabolic stability assay was performed in the presence of human and mouse liver microsomes by measurement of test compounds disappearance over time (60 min). The plasma protein binding assay, including stability estimation, was performed using the RED devices (Thermo Fisher Scientific) in the presence of human and mouse plasma. All samples from the in vitro ADME studies were quantified by liquid chromatography-triple quadrupole mass spectrometry (LC–MS/MS). The assays were performed as previously described ([36]) and the details are available in SI Appendix. Cytotoxicity was assessed by incubation of test compounds in the presence of HepG2 cells for 72 h as previously described ([37]).

The nature of data set [6]: Plasma protein binding (RED device). Particulars: plasma (50% plasma, 50% isotonic buffer), pH 7.4; human plasma. The data set is classed as in vitro ADME. Here is the method: as §5
Plasma protein binding and plasma stability in human and animal plasma. Pooled,
anonymized human plasma was provided by Uppsala Academic Hospital and was collected from
two donors (non-smoking) (citric acid). In brief, 0.2 ml of the plasma (50% plasma, 50% isotonic
buffer) test solution (typically 10 μM final compound concentration) was transferred to the
membrane tube in the RED insert (ThermoFisher Scientific). 0.35 ml isotonic phosphate buffer
pH 7.4 was added to the other side of the membrane. The 96-well base plate was then sealed
with an adhesive plastic film (Scotch Pad) to prevent evaporation. The sample was incubated
with rapid rotation (900 rpm) on a Kisker rotational incubator at 37°C for 4 h to achieve
equilibrium. A stability test of the test solution was prepared (to allow detection of drug
degradation), 100 μL of the plasma test solution (in a plastic vial or on a sealed plate) was
incubated at 37°C for 4 h (or as long as the dialysis time). The plasma test solution was frozen
directly after the administration to prevent any degradation. Prior to LC-MS/MS analysis the
plasma and buffer sample were treated with the addition of Methanol (1:3) containing Warfarin
as internal standard to precipitate proteins. The standard curve was created using the plasma
standard. The plate is then sealed, centrifuged and the supernatant is analysed by liquid
chromatography coupled to triple quadrupole mass spectrometry (LC-MS/MS). […]
Liquid chromatography coupled to triple quadrupole mass spectrometry (LC-MS/MS). The test
compounds were optimized on a Waters Acquity UPLC XEVO TQ-S micro system (Waters Corp.)
operating in multiple reaction monitoring (MRM) mode with positive or negative electrospray
ionization. Compounds were optimized by using the QuanOptimize software (Waters Corp.).
For chromatographic separation, a C18 BEH 1.7 µm column was used, with a general gradient of
1% to 90% of mobile phase B over a total running time of 2 min. Mobile phase A consisted of
5% acetonitrile and 0.1% formic acid in purified water, and mobile phase B of 0.1% formic acid
in 100% acetonitrile. The flow rate was set to 0.5 ml/min and 5 µL of the sample was injected.

[7] abbreviates: read-out: MIC E. coli ATCC 25922 Wild-type.
Where [8] appears, read: Klebsiella pneumoniae, ATCC13883, read-out: MIC K. pneumoniae ATCC 13883 Wild-type.
Setting [9] is: Homo sapiens, HepG2, 72 h, read-out: HepG2 viability IC50, 72 h.
[10] abbreviates: Klebsiella pneumoniae, ATCC13883, read-out: MIC K. pneumoniae ATCC 13883 In 50% human serum.
Setting [11] is: ATCC 25922 (Table S4), read-out: MIC E. coli EN0001.

One may read the MIC as the lowest concentration found to suppress growth. In general, IC50 refers to the concentration that gives 50% inhibition. As to `CC(=O)N1CCc2cc(S(=O)(=O)N3CCN(c4cccc(C(F)(F)F)c4)CC3)ccc21` [AZ1, reference compound], the minimal inhibitory concentration (MIC) in data set [1] (setting [7]) and in data set [3] (setting [8]) was more than 64 µg/mL in each case. The “MIC E. coli ATCC 25922 ΔtolC efflux mutant” value in data set [2] was found to be 2 µg/mL (≈ 4.41 µM). In data set [4], this molecule showed a hemolysis of 2.1%. In addition, the half-maximal inhibitory concentration (IC50) in data set [5] (setting [9]) worked out at 22.5 µM.

As a reminder, the fraction unbound is free concentration divided by total concentration. For the molecule `CN(c1ccccc1C(=O)Nc1ccc(S(=O)(=O)N2CCN(c3cccc(C(F)(F)F)c3)CC2)cc1)S(C)(=O)=O` [JEDI-1444], the MIC worked out at 2 µg/mL (≈ 3.35 µM) in data set [1] (setting [7]), 32 µg/mL (≈ 53.6 µM) in data set [3] (setting [10]) and 2 µg/mL (≈ 3.35 µM) in data set [3] (setting [8]). Besides, the “MIC E. coli ATCC 25922 ΔtolC efflux mutant” value in data set [2] was not above 0.125 µg/mL. In data set [4], the hemolysis is 0.02%. Further, in data set [5] (setting [9]), the IC50 was more than 64 µM. This molecule registered a fraction unbound at 4 h, 10 µM in data set [6] of 0.001.

Take `Cc1cc(C#N)nc(N2CCN(S(=O)(=O)c3ccc(NC(=O)c4ccccc4N(C)S(C)(=O)=O)cc3)CC2)n1` [EBL-3339]: the figures for the minimum inhibitory concentration (MIC) in data set [1] (setting [7]), in data set [3] (setting [10]) and in data set [3] (setting [8]) were 1 µg/mL (≈ 1.76 µM), 2 µg/mL (≈ 3.51 µM) and 0.5 µg/mL (≈ 0.878 µM), respectively. Moreover, in data set [2], the “MIC E. coli ATCC 25922 ΔtolC efflux mutant” value was not above 0.125 µg/mL. Moreover, the hemolysis in data set [4] turned out to be 0.05%. For the same molecule, the IC50 in data set [5] (setting [9]) is 29 µM. In data set [6], this molecule returned a fraction unbound at 4 h, 10 µM of 0.0054.

`CN(c1ccccc1C(=O)Nc1ccc(S(=O)(=O)N2CCCCC2)cc1)S(C)(=O)=O` [JEDI-852]: the MIC in data set [1] (setting [7]) and in data set [3] (setting [8]) was more than 64 µg/mL in each case. Further, the “MIC E. coli ATCC 25922 ΔtolC efflux mutant” value in data set [2] turned out to be 4 µg/mL (≈ 8.86 µM). In addition, the hemolysis in data set [4] amounted to 0.03%. Further, the IC50 was more than 32 µM in data set [5] (setting [9]) and more than 64 µM in data set [5] (read-out: HepG2 viability IC50, 72 h).

On to `CN(c1ccc(CNCCN)cc1C(=O)Nc1ccc(S(=O)(=O)N2CCN(c3cc(Cl)cc(Cl)c3)CC2)cc1)S(C)(=O)=O` [EBL-3025], for which the MIC came out at 1 µg/mL (≈ 1.49 µM) in data set [1] (setting [7]), 0.5 µg/mL (≈ 0.747 µM) in data set [3] (setting [10]) and 0.5 µg/mL (≈ 0.747 µM) in data set [3] (setting [8]). Also, the “MIC E. coli ATCC 25922 ΔtolC efflux mutant” value in data set [2] is not above 0.125 µg/mL. The hemolysis in data set [4] came out at 1.98%. Further, the IC50 in data set [5] (setting [9]) is 49 µM. In data set [6], this molecule came in with a fraction unbound at 4 h, 10 µM of 0.001.

Consider `Cc1cc(C#N)nc(N2CCN(S(=O)(=O)c3ccc(NC(=O)c4cc(CN5CC(CN)C5)ccc4N(C)S(C)(=O)=O)cc3)CC2)n1` [EBL-3647], for which the MIC in data set [1] (setting [11]) came out at 2 µg/mL (≈ 2.99 µM); in data set [1] (setting [7]) it was 2 µg/mL (≈ 2.99 µM); in data set [3] (setting [10]), 0.25 µg/mL (≈ 0.374 µM); in data set [3] (setting [8]), 0.5 µg/mL (≈ 0.749 µM). Also, the “MIC E. coli ATCC 25922 ΔtolC efflux mutant” value in data set [2] is not above 0.125 µg/mL. This molecule returned a hemolysis in data set [4] of 0.13%. Besides, the IC50 in data set [5] (setting [9]) was found to be 54 µM. The fraction unbound at 4 h, 10 µM in data set [6] was determined as 0.025.

Regarding `Cc1cc(C#N)nc(N2CCN(S(=O)(=O)c3ccc(NC(=O)c4cc(CNCCCN)ccc4N(C)S(C)(=O)=O)cc3)CC2)n1.Cl.Cl` [EBL-3599], the MIC is 2 µg/mL in data set [1] (setting [11]); 2 µg/mL in data set [1] (setting [7]); 0.25 µg/mL in data set [3] (Klebsiella pneumoniae, ATCC13883; read-out: MIC K. pneumoniae ATCC 13883 In 50% human serum); 1 µg/mL in data set [3] (Klebsiella pneumoniae, ATCC13883; read-out: MIC K. pneumoniae ATCC 13883 Wild-type). Moreover, the “MIC E. coli ATCC 25922 ΔtolC efflux mutant” value in data set [2] is not above 0.125 µg/mL. In addition, the hemolysis in data set [4] was found to be 0.06%. Also, the IC50 in data set [5] (Homo sapiens, HepG2, 72 h, read-out: HepG2 viability IC50) amounted to 55 µM. The molecule further yielded a fraction unbound at 4 h, 10 µM in data set [6] of 0.02.
